Assay results as given in patent US20230110128A1, “USE OF ANTIBODY DRUG CONJUGATES COMPRISING TUBULIN DISRUPTING AGENTS TO TREAT SOLID TUMOR” (Seagen Inc., priority 2018, published 2023).

Experiments:
[1] = system: MCF7 breast cancer cells; assay: Western blot analysis of ER stress response in MCF7 cells; assay type: cell-based; details: FIG. 16A
Method: MCF7 breast cancer cells were treated with 100 nM MMAE for 16 hours and harvested RIPA buffer for western blot analysis.
MCF7 cells were treated with MMAE or an MMAE-containing ADC (SGN-LIV1A) for 16 hours and harvested in […] for western bot analysis. […] Induction of ICD is also characterized by the secretion of ATP and HMGB1. Extracellular ATP serves as a strong chemotactic signal, promoting immune cell migration to the tumor site. Upon arrival, extracellular HMGB1 signals through various pro-inflammatory receptors (TLR2, TLR4, RAGE) to activate antigen-presenting cells, thereby promoting immune activity within the tumor.

[2] = system: MCF7 cells; assay: ATP secretion from MCF7 cells; assay type: cell-based; details: after 48 hours of treatment
[3] = system: A2058, SK-MEL-5, SK-MEL-28 (skin) cell lines; assay: ATP secretion in skin cell lines; assay type: cell-based; details: A2058, SK-MEL-5, SK-MEL-28, after 17 hours
Method: (§1) Skin tumor lines A2058, SK-MEL-5 and SK-MEL-28, Calu-1 (lung), HT-1080 (fibrosarcoma), SK-MES-1 (lung), and BXPC3 (pancreas) cells were treated with MMAE, vincristine, and Paclitaxel. Supernatant was collected after 17 hours of treatment, and analyzed for ATP secretion.

[4] = system: MiaPaca2 cells; assay: ATP secretion from MiaPaca2 cells; assay type: cell-based; details: supernatant after 16 hours
Method: MiaPaca2 cells were treated with MMAE, Vincristine, or Paclitaxel. Supernatant was collected after 16 hours of treatment, and analyzed for ATP secretion.

[5] = system: PC-3 prostate tumor cells; assay: ATP secretion from PC-3 cells; assay type: cell-based; details: supernatant after 16 hours
Method: PC-3 prostate tumor cells were also treated with MMAE, Vincristine, or Paclitaxel. Supernatant was collected after 16 hours of treatment, and analyzed for ATP secretion. […] PC-3 cells were treated for 24 hours with an MMAE-containing ADC (SGN-LIV1A) or MMAE and harvested in RIPA buffer for western blot analysis (FIG. 3C).

[6] = system: A2058, SK-MEL-5, SK-MEL-28, Calu-1, HT-1080, SK-MES-1, BXPC3 and HPAFII cells; assay: HMGB1 release by ELISA in a panel of solid tumor cell lines; assay type: cell-based; details: supernatant after one night of treatment
Method: A2058, SK-MEL-5, SK-MEL-28 (skin), Calu-1, HT-1080, SK-MES-1 (lung), and BXPC3 and HPAFII (pancreas) cells were treated with an MMAE-containing ADC (e.g., anti-p97-MMAE or anti-CD71-MMAE) or Paclitaxel. Supernatant was collected after one night of treatment, and analyzed for HMGB1 release by ELISA. […] See, e.g., FIG. 70 and additional description below.

[7] = system: MiaPaca-CHOP-luciferase cells; assay: CHOP-driven luciferase reporter assay of severe ER stress; assay type: cell-based; details: after 16 hours
Method: Severe ER stress leads to upregulation of CHOP, and initiates mitochondrial apoptosis. MiaPaca2 pancreatic tumor cells were engineered to express a CHOP-driven luciferase reporter system (purchased from Signosis, Inc.) that allows for quantifiable monitoring of severe ER stress. MiaPaca-CHOP-luciferase cells were treated with MMAE, vincristine, and Paclitaxel, and assayed for luciferase expression after 16 hours.

[8] = system: BxPC-3 cells; assay: ATP secretion from BxPC-3 cells; assay type: cell-based; details: 17 hours
[9] = system: MiaPaca-CHOP-luciferase cells subcutaneously engrafted; assay: Tumoral CHOP luciferase signal in engrafted MiaPaca-CHOP-luciferase tumors; assay type: in vivo, NOD/SCID/gamma-chain deficient mice; details: intratumorally; MMAE 0.36 mg/kg, vincristine 1.0 mg/kg, Paclitaxel 10 mg/kg
Method: MiaPaca-CHOP-luciferase cells were subcutaneously engrafted into NOD/SCID/gamma-chain deficient mice. Subcutaneous tumors were treated intratumorally with MMAE (0.36 mg/kg), vincristine (1.0 mg/kg), and Paclitaxel (10 mg/kg) and tumoral luciferase signal was monitored over time.

[10] = system: BxPC3 and HPAFII (pancreas) cells co-cultured with macrophages; assay: Macrophage antigen presentation after co-culture with treated pancreas tumor cells; assay type: cell-based; details: BxPC3 and HPAFII treated 24 hours; macrophages harvested 4 days after co-culture
Method: Macrophages were enriched from PBMCs from 2 healthy donors by adhering PBMCs to cell culture-grade plastic. Non-adherent cells were removed 24 hours later, leaving a population of cells enriched for macrophages.
BxPC3 and HPAFII (pancreas) cells were treated with MMAE, vincristine, and Paclitaxel for 24 hours. Cells were washed and harvested, and subsequently co-cultured with the enriched macrophages prepared above. Macrophages were harvested 4 days after co-culture and assayed for immune activation by flow cytometry. Level of antigen-presentation (as measured by frequency of MHCII-expressing cells) was quantified and normalized to macrophages that were co-cultured with untreated tumor cells.

[11] = system: HeLa cervical cancer cells; assay: Western blot analysis of ER stress in HeLa cells; assay type: cell-based; details: 1000 nM or 100 nM, 16 hours
Method: HeLa cervical cancer cells were treated with 1000 nM or 100 nM MMAE, Vincristine, or Paclitaxel for 16 hours and harvested for western blot analysis.

[12] = system: Hep3b, Huh7, and JHH7 cells; assay: ATP secretion from liver tumor lines; assay type: cell-based; details: Huh7, JHH7, 24 hours
Method: (§2) Liver tumor lines Hep3b, Huh7, and JHH7 cells were treated with MMAE, Tubulysin M, vincristine, and Paclitaxel for 24 hours and analyzed for ATP secretion. […] Cells were washed and harvested, and subsequently co-cultured with enriched macrophages prepared as above. Macrophages were harvested 4 days after co-culture and assayed for immune activation by flow cytometry. Levels of costimulation (as measured by CD86 expression, JHH7) and antigen-presentation (as measured by frequency of MHCII-expressing cells, Hep3b, Huh7, and JHH7) were quantified and normalized to macrophages that were co-cultured with […]. […] Supernatant from the co-culture of macrophages and dying liver tumor cells was harvested 24 hours later and assayed for levels of cytokine and chemokine production by ELISA and normalized to macrophages that were co-cultured with untreated tumor cells.

[13] = system: Hep3b, Huh7, and JHH7 cells co-cultured with macrophages; assay: Cytokine and chemokine production in macrophage co-culture with treated liver tumor cells; assay type: cell-based; details: Huh7, JHH7 co-culture supernatant 24 hours, ELISA, normalized to untreated
Method: as §2

[14] = system: A2058, SK-MEL-5, SK-MEL-28, Calu-1, HT-1080, SK-MES-1 and BXPC3 cells; assay: ATP secretion in a panel of solid tumor cell lines; assay type: cell-based; details: 7 cell lines, supernatant after 17 hours
Method: as §1

[15] = system: T-24 cells co-cultured with macrophages; assay: Macrophage antigen presentation after co-culture with treated T-24 cells; assay type: cell-based; details: T-24 treated 24 hours; macrophages harvested 4 days after co-culture
Method: (§3) T-24 (bladder) cells were treated with MMAE or an MMAE-containing ADC (ASG-22ME) for 48 hours and analyzed for ATP secretion. […] T-24 cells were also treated with MMAE, an MMAE-containing ADC (ASG22ME, Enfortumab vedotin), vincristine, and Paclitaxel for 24 hours. Cells were washed and harvested, and subsequently co-cultured with the enriched macrophages as above. Macrophages were harvested 4 days after co-culture and assayed for immune activation by flow cytometry. Level of antigen-presentation (as measured by frequency of MHCII-expressing macrophages) was quantified and normalized to macrophages that were co-cultured with untreated tumor cells. […] Supernatant from the co-culture of macrophages and dying T-24 tumor cells was harvested after 24 hours and assayed for levels of cytokine and chemokine production by ELISA and normalized to macrophages that were co-cultured with untreated tumor cells.

[16] = system: MDA-MB-468 cells; assay: ATP secretion from MDA-MB-468 cells; assay type: cell-based; details: supernatant after 48 hours
Method: MDA-MB-468 cells were treated with MMAE or an MMAE-containing ADC (ASG-22ME). Supernatant was collected after 48 hours of treatment, and analyzed for ATP secretion.

[17] = system: T-24 tumor cells co-cultured with macrophages; assay: Cytokine and chemokine production in macrophage co-culture with treated T-24 cells; assay type: cell-based; details: T-24 co-culture supernatant after 24 hours, ELISA, normalized to untreated
Method: as §3

[18] = system: T-24 (bladder) cells; assay: ATP secretion from T-24 cells; assay type: cell-based; details: 48 hours
Method: as §3

| Compound | Severe ER stress (phosphorylation of IRE1 and JNK) [1] | ATP secretion [2] | ATP secretion [5] | Luciferase signal as a proxy of severe ER stress induction [7] | ATP secretion [8] | Severe ER stress in engrafted tumors (tumoral luciferase signal over time) [9] | Antigen-presentation (frequency of MHCII-expressing cells) [10] | ER stress responses (phosphorylation of IRE1) [11] | other results |
| --- | --- | --- | --- | --- | --- | --- | --- | --- | --- |
| CC(=O)O[C@@]12CO[C@@H]1C[C@H](O)[C@@]1(C)C(=O)[C@H](O)C3=C(C)[C@@H](OC(=O)[C@H](O)[C@@H](NC(=O)OC(C)(C)C)c4ccccc4)C[C@@](O)([C@@H](OC(=O)c4ccccc4)[C@H]21)C3(C)C [Docetaxel, docetaxel, reference compound] | do not elicit JNK phosphorylation | neither Paclitaxel nor Docetaxel elicited ATP secretion | – | – | – | – | – | – | – |
| CC(=O)O[C@H]1C(=O)[C@@]2(C)[C@H]([C@H](OC(=O)c3ccccc3)[C@]3(O)C[C@H](OC(=O)[C@H](O)[C@@H](NC(=O)c4ccccc4)c4ccccc4)C(C)=C1C3(C)C)[C@]1(OC(C)=O)CO[C@@H]1C[C@@H]2O [Paclitaxel, paclitaxel] | do not elicit JNK phosphorylation | neither Paclitaxel nor Docetaxel elicited ATP secretion | modest ATP secretion | modest luciferase signal at the peak doses | equivalent levels of ATP secretion | does not induce ER stress | did not lead to changes in macrophage antigen-presentation | activated ER stress responses | ATP secretion (skin cell lines responding) [3]: ATP secretion from only 1 of 3 cell lines; ATP secretion [4]: modest ATP secretion; HMGB1 release (cell lines responding) [6]: HMGB1 release in most of the cell lines assayed (5/7); Severe ER stress response (phosphorylation of JNK) [11]: Robust JNK phosphorylation was not seen with lower doses |
| CC[C@H](C)[C@H](NC(=O)[C@H]1CCCCN1C)C(=O)N(C)[C@H](C[C@@H](OC(C)=O)c1nc(C(=O)N[C@@H](Cc2ccccc2)C[C@H](C)C(=O)O)cs1)C(C)C [Tubulysin M, tubulysin M, reference compound] | – | – | – | – | – | – | – | – | ATP secretion (cell lines responding) [12]: potent ATP secretion from 3 of 3 cell lines evaluated; Cytokine and chemokine production [13]: increase of the indicated cytokines and chemokines that was more robust than treatment with Paclitaxel |
| C=C1C[C@@H]2CC[C@@]34C[C@H]5O[C@H]6[C@@H](O3)[C@H]3O[C@H](CC[C@@H]3O[C@H]6[C@H]5O4)CC(=O)C[C@@H]3[C@@H](OC)[C@@H](C[C@H](O)CN)O[C@H]3C[C@H]3O[C@@H](CC[C@@H]1O2)C[C@@H](C)C3=C [eribulin, reference compound] | elicits severe ER stress (phosphorylation of IRE1 and JNK) | Increased AIR secretion | – | – | – | – | – | – | – |
| CC[C@]1(O)C[C@H]2CN(CCc3c([nH]c4ccccc34)[C@@](C(=O)OC)(c3cc4c(cc3OC)N(C=O)[C@H]3[C@@](O)(C(=O)OC)[C@H](OC(C)=O)[C@]5(CC)C=CCN6CC[C@]43[C@@H]65)C2)C1 [vincristine] | – | – | robust ATP secretion | dose-dependent increase in luciferase signal | equivalent levels of ATP secretion | rapidly elicited severe ER stress | increase in antigen-presentation in 1/2 tumor cell lines | activated ER stress responses | ATP secretion (cell lines responding) [14]: ATP secretion in most of the cell lines assayed (6/7); ATP secretion response compared with Paclitaxel [14]: more robust response than Paclitaxel in all cell lines assayed |
| ASG-22ME | – | – | – | – | – | – | – | – | Macrophage antigen presentation (frequency of MHCII-expressing macrophages) [15]: increase in macrophage antigen presentation that was more robust than treatment with Paclitaxel; ATP secretion [16]: robust ATP secretion that was comparable to thapsigargin; Cytokine and chemokine production [17]: increase of the indicated cytokines and chemokines that was more robust than treatment with Paclitaxel; ATP secretion [18]: potent ATP secretion |
